Experimental data reported in the NIST ThermoML archive (doi:10.1016/j.fluid.2014.11.010).
± gives the expanded uncertainty stated by the source.

Details: 313.15 K; Liquid; Closed cell (Static) method

| Compound | vapor or sublimation pressure [kPa] |
| --- | --- |
| CCCCO [butan-1-ol] | 2.506 ± 0.015 |
| CCC(C)O (centres undefined) [butan-2-ol] | 6.05 ± 0.02 |
| C=CCCCC [hex-1-ene] | 45 ± 0.092 |
| Cc1ccccc1 [toluene] | 7.876 ± 0.022 |
